Measurements from article PMC9367601 (Cancers, 2022).

Tests used:
[1] = biological target: T1, Epidermal Growth Factor Receptor (EGFR), extracellular domain (EGFR-ECD) (Homo sapiens, UniProt P00533); experiment: cell-based; set-up: DiscoverX PathHunter EGFR dimerization/activation assay, chemiluminescence; conditions: for % inhibition @ 10 uM / % inhibition @ 50 uM: inhibitor
T1 construct: full-length EGFR in DiscoverX PathHunter enzyme-complementation cells, EGF-stimulated
Procedure: The inhibition of the EGFR dimerization assay was conducted using the PathHunter kit following the producer instructions and with cetuximab as a positive control. For IC50 determination, the selected compounds were tested at different concentration (range 0.1–100 µM) and the IC50 values were calculated by the four parameters logistic (4-PL) model. Evaluation was based on means from at least four independent experiments. The discovery of orally available small molecules able to impair the EGFR activation targeting the extracellular domain could be of great interest for cancer treatment. To pursue this goal, a suitable high/medium throughput screening method is required. In this respect, a commercially available kit (PathHunter® from DiscoverX©; San Francisco, CA, USA) for the screening of compounds able to prevent EGFR activation (either dimerization or autophosphorylation) has been developed in recent years. This assay measures the chemiluminescent signal produced as a consequence of ligand-induced dimerization/activation of EGFR [16]. Our interest in kinase inhibitors and the readily availability of such kit prompted us to start a campaign for the discovery of small molecules targeting the extracellular domain of EGFR.

[2] = biological target: Epidermal Growth Factor Receptor (EGFR) (Homo sapiens, UniProt P00533); experiment: PathHunter cell-based EGFR dimerization assay, dose-response
[3] = biological target: T1, Epidermal Growth Factor Receptor (EGFR), extracellular domain (EGFR-ECD); experiment: SPR competition: dose-dependent decrease of EGF binding to immobilized EGFR-ECD (no SPR value printed); the IC50 is from the PathHunter cell EGFR dimerization assay; format: cell-based

T1 sequence (P00533 25-1210): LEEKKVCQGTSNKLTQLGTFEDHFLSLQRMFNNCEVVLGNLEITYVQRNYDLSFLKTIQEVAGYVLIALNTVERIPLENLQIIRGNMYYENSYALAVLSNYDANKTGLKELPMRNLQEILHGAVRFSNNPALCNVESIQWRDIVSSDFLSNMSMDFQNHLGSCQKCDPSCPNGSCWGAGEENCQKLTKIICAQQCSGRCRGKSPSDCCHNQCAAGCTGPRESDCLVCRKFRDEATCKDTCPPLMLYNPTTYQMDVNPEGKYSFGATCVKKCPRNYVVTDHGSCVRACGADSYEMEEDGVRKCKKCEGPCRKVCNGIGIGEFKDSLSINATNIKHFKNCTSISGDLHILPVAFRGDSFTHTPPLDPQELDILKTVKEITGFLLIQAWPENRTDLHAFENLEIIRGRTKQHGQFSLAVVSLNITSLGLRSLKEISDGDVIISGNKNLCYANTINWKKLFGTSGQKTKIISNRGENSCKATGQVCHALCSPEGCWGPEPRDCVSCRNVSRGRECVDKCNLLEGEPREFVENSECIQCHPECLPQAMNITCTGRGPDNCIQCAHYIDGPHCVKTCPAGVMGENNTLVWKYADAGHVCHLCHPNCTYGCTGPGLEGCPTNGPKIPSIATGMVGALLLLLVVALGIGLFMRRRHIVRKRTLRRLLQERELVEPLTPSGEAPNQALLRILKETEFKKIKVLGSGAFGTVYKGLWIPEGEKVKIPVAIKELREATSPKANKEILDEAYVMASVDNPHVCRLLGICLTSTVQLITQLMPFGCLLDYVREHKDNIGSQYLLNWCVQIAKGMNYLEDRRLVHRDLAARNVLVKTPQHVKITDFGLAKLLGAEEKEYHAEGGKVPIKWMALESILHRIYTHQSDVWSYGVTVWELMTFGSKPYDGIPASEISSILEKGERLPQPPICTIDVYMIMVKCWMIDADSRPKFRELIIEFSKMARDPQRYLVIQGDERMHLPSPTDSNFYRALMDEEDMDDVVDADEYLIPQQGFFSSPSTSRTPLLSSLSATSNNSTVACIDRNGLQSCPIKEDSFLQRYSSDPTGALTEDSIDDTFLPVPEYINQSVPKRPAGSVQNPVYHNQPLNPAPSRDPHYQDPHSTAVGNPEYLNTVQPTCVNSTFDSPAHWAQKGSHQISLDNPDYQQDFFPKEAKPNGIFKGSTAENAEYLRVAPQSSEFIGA
Chain of Epidermal Growth Factor Receptor (EGFR) (P00533 25-1210): as above

SMILES | inhibition at 10 µM [1] [%] | inhibition at 50 µM [1] [%] | also measured
CCc1cnc(Oc2cccc(NC(=S)NC(=O)c3ccccc3)c2)nc1 [DSF065] | 0 | 22 ± 5 | –
CCc1cnc(Oc2cccc(NC(=O)NC(=O)c3ccccc3[N+](=O)[O-])c2)nc1 [DSF066] | 0 | 0 | –
O=C(O)Cc1ccc(/N=C2/C(=O)Nc3ccccc32)cc1 [DSF067] | 42 ± 5 | 42 ± 1 | –
O=C(O)Cc1ccc(/N=C2/C(=O)Nc3ccc(Br)cc32)cc1 [DSF068] | 37 ± 5 | 56 ± 4 | –
O=C1Nc2ccccc2/C1=N\c1cccc(C(F)(F)F)c1 [DSF069] | 27 ± 5 | 56 ± 2 | –
COc1ccc(OC)c(/N=C2/C(=O)Nc3ccc(Br)cc32)c1 [DSF070] | 20 ± 5 | 41 ± 1 | –
CC(=O)Nc1ccc(/C=C2/N=C(c3cccc(C(=O)O)c3)OC2=O)cc1 [DSF071] | 0 | 0 | –
COc1cc(/C=C2/N=C(c3ccccc3)OC2=O)ccc1OC(C)=O [DSF072] | 16 ± 4 | 39 ± 2 | –
CN(C)c1ccc(/C=C2/N=C(c3ccccc3)OC2=O)cc1 [DSF073] | 23 ± 1 | 36 ± 3 | –
O=C1OC(c2ccccc2)=N/C1=C/c1cnc2ccccc2c1 [DSF074] | 10 ± 3 | 48 ± 2 | –
O=C1OC(c2ccccc2)=N/C1=C/c1ccc[nH]1 [DSF075] | 18 ± 5 | 34 ± 4 | –
COc1ccc(/C=C2/N=C(c3ccccc3)OC2=O)cc1 [DSF076] | 25 ± 2 | 18 ± 4 | –
CC(=O)n1cc(/C=C2/N=C(c3ccccc3)OC2=O)c2ccccc21 [DSF077] | 7 ± 1 | 39 ± 1 | –
CC(=O)Nc1ccc(/C=C2/N=C(c3cccnc3Cl)OC2=O)cc1 [DSF078] | 7 ± 1 | 37 ± 4 | –
COc1ccc([N+](=O)[O-])c(C2=NC(=Cc3ccc(NC(C)=O)cc3)C(=O)O2)c1 [DSF079] | 3 ± 1 | 41 ± 2 | –
Cc1cccc(C)c1NS(=O)(=O)c1ccc(CC(=O)O)cc1 [DSF082] | – | – | % inhibition @ 10 uM [1]: 16 ± 1%; % inhibition @ 50 uM [1]: 19 ± 5%
Cc1cccc(C)c1NS(=O)(=O)c1ccc(CC(=O)O)cc1 [DSF083] | – | – | % inhibition @ 10 uM [1]: 36 ± 4%; % inhibition @ 50 uM [1]: 49 ± 3%
O=C1Nc2ccc(Br)cc2C1=Nc1cccc(C(F)(F)F)c1 [DSF-097] | – | – | IC50 [2]: 38.8 ± 3.6 µM
O=C1Nc2cc(Cl)c(F)cc2C1=Nc1cccc(C(F)(F)F)c1 [DSF-099] | – | – | IC50 [2]: 27.7 ± 4.5 µM
O=C1Nc2ccc([N+](=O)[O-])cc2C1=Nc1cccc(C(F)(F)F)c1 [DSF-102] | – | – | IC50 [3]: 13.2 ± 2.1 µM

Now from value to compound, other results behind:

inhibition at 10 µM [1] [%] | inhibition at 50 µM [1] [%] | SMILES | also measured
11 ± 5 | 28 ± 3 | CC(=O)Nc1ccc(C=C2N=C(c3ccc([N+](=O)[O-])cc3O)OC2=O)cc1 [DSF080] | –
21 ± 5 | 26 ± 1 | O=C(O)Cc1ccc(S(=O)(=O)Nc2ccccc2)cc1 [DSF081] | –
19 ± 2 | 29 ± 3 | O=C(O)c1ccc(NS(=O)(=O)c2ccc(Cl)cc2[N+](=O)[O-])cc1 [DSF084] | –
0 | 36 ± 5 | O=C(O)c1ccc(NS(=O)(=O)c2ccc(Cl)cc2[N+](=O)[O-])cc1O [DSF085] | –
0 | 19 ± 4 | O=[N+]([O-])c1cc(Cl)ccc1S(=O)(=O)Nc1cccc(Cl)c1 [DSF086] | –
2 ± 3 | 36 ± 4 | CCOC(=O)c1ccc(NS(=O)(=O)c2ccc(Cl)cc2[N+](=O)[O-])cc1 [DSF087] | –
0 | 22 ± 3 | COc1ccc(OC)c(NS(=O)(=O)c2ccc(Cl)cc2[N+](=O)[O-])c1 [DSF088] | –
20 ± 5 | 22 ± 4 | O=[N+]([O-])c1cc(Cl)ccc1S(=O)(=O)N1CCOCC1 [DSF089] | –
12 ± 2 | 19 ± 1 | O=[N+]([O-])c1cc(Cl)ccc1S(=O)(=O)N1CCCCC1 [DSF090] | –
